Test results: patent US9862713B2, “Substituted bicyclic heteroaryl compounds as RXR agonists” (CONNEXIOS LIFE SCIENCES PVT. LTD., priority 2014, dated 2018)

System: hRXR α, β, or γ
Experiment: Transactivation assay (RARE-Luc dual luciferase reporter in HEK-293 cells), activity relative to LG268
Format: cell-based, human
Settings: compound at 300 nM, 24 h; luciferase activity expressed relative to LG268
Method: HEK-293 cells (ATCC) were seeded one day prior to transfection. For assessing EC50 of activation of RXR isoforms 2 μg of hRXR α, β, or γ (OriGENE, USA) over-expressing vector, 1 μg of plasmid expressing firefly luciferase under RARE element (RARE-Luc) and 25 ng of renilla luciferase vector (QIAGEN, USA) were co-transfected using lipofectamine reagent. Post 24 h of transfection, cells were treated with different concentrations of RXR agonists (100 nM, 300 nM and 1 uM) for 24 h followed by estimation of luciferase activity using Dual Luciferase Reporter Assay System (Promega). Luciferase activity was normalized to that of renilla luciferase. The activities of the RXR compounds were expressed relative to LG268, a known RXR agonist.

Row | SMILES | Activity at 300 nM
1 | CC1(C)CCC(C)(C)c2sc(N(CC3CC3)c3ncc(C(=O)O)cc3Cl)nc21 [Compound 68] | * (<0.3)
2 | CC(C)CN(c1nc2c(s1)C(C)(C)CCC2(C)C)c1ncc(C(=O)O)cc1Cl [Compound 69, 5-chloro-6-[(2-methylpropyl) (4,4,7,7-tetramethyl-4,5,6,7-tetrahydro-1,3-benzothiazol-2-yl)amino]pyridine-3-carboxylic acid] | * (<0.3)
3 | CC1(C)CCC(C)(C)c2sc(N(CC3CC3)c3cc(Cl)c(C(=O)O)cn3)nc21 [Compound 70, 4-chloro-6-[(cyclopropylmethyl) (4,4,7,7-tetramethyl-4,5,6,7-tetrahydro-1,3-benzothiazol-2-yl)amino]pyridine-3-carboxylic acid] | ***** (>0.6)
4 | COc1cc(C(=O)O)ccc1N(CC1CC1)c1nc2c(s1)C(C)(C)CCC2(C)C [Compound 71, 4-[(cyclopropylmethyl) (4,4,7,7-tetramethyl-4,5,6,7-tetrahydro-1,3-benzothiazol-2-yl)amino]-3-methoxybenzoic acid] | * (<0.3)
5 | COc1cc(N(CC2CC2)c2nc3c(s2)C(C)(C)CCC3(C)C)ccc1C(=O)O [Compound 72] | * (<0.3)
6 | COc1cc(N(CC(C)C)c2nc3c(s2)C(C)(C)CCC3(C)C)ccc1C(=O)O [Compound 73, 2-methoxy-4-[(2-methylpropyl) (4,4,7,7-tetramethyl-4,5,6,7-tetrahydro-1,3-benzothiazol-2-yl)amino]benzoic acid] | ** (>0.3 and <0.4)
7 | Cc1c(N(CC(C)C)c2ccc(C(=O)O)c(N)c2)sc2c1C(C)(C)CCC2(C)C [Compound 79, 2-amino-4-[(2-methylpropyl) (3,4,4,7,7-pentamethyl-4,5,6,7-tetrahydro-1-benzothiophen-2-yl)amino]benzoic acid] | ***** (>0.6)
8 | CCCS(=O)(=O)Nc1cc(N(CC(C)C)c2sc3c(c2C)C(C)(C)CCC3(C)C)ccc1C(=O)O [Compound 80, 4-[(2-methylpropyl) (3,4,4,7,7-pentamethyl-4,5,6,7-tetrahydro-1-benzothiophen-2-yl)amino]-2-[(propylsulfonyl)amino]benzoic acid] | *** (>0.4 and <0.5)
9 | CCCN(c1ccc(C(=O)O)cn1)c1nc2c(s1)C(C)(C)C=CC2(C)C [Compound 81, 6-[propyl(4,4,7,7-tetramethyl-4,7-dihydro-1,3-benzothiazol-2-yl)amino]pyridine-3-carboxylic acid] | ***** (>0.6)
10 | CC(C)CN(c1ccc(C(=O)O)cn1)c1nc2c(s1)C(C)(C)C=CC2(C)C [Compound 82, 6-[(2-methylpropyl) (4,4,7,7-tetramethyl-4,7-dihydro-1,3-benzothiazol-2-yl)amino]pyridine-3-carboxylic acid] | ***** (>0.6)
11 | CC(C)CN(c1ccc(C(=O)O)cc1)c1nc2c(s1)C(C)(C)C=CC2(C)C [Compound 83, 4-[(2-methylpropyl) (4,4,7,7-tetramethyl-4,7-dihydro-1,3-benzothiazol-2-yl)amino]benzoic acid] | * (<0.3)
12 | CC1(C)CCC(C)(C)c2sc(N(C(=O)C3CCC3)c3ccc(C(=O)O)cn3)nc21 [Compound 84, 6-[(cyclobutylcarbonyl) (4,4,7,7-tetramethyl-4,5,6,7-tetrahydro-1,3-benzothiazol-2-yl)amino]pyridine-3-carboxylic acid] | ** (>0.3 and <0.4)
13 | CC(=O)N(c1ccc(C(=O)O)cn1)c1nc2c(s1)C(C)(C)CCC2(C)C [Compound 85, 6-[acetyl(4,4,7,7-tetramethyl-4,5,6,7-tetrahydro-1,3-benzothiazol-2-yl)amino]pyridine-3-carboxylic acid] | ** (>0.3 and <0.4)
14 | CC1(C)CC(O)C(C)(C)c2nc(N(CC3CC3)c3ccc(C(=O)O)cn3)sc21 (stereo not drawn) [Compound 86, 6-[(cyclopropylmethyl) (5-hydroxy-4,4,7,7-tetramethyl-4,5,6,7-tetrahydro-1,3-benzothiazol-2-yl)amino]pyridine-3-carboxylic acid] | ***** (>0.6)
15 | COC1CC(C)(C)c2sc(N(CC3CC3)c3ccc(C(=O)O)cn3)nc2C1(C)C (stereo not drawn) [Compound 87, 6-[(cyclopropylmethyl) (5-methoxy-4,4,7,7-tetramethyl-4,5,6,7-tetrahydro-1,3-benzothiazol-2-yl)amino]pyridine-3-carboxylic acid] | ***** (>0.6)
16 | CC(C)CN(c1ccc(C(=O)O)cc1)c1nc2c(s1)C(C)(C)CC(C)(O)C2(C)C (stereo not drawn) [Compound 88, 4-[(5-hydroxy-4,4,5,7,7-pentamethyl-4,5,6,7-tetrahydro-1,3-benzothiazol-2-yl) (2-methylpropyl)amino]benzoic acid] | ** (>0.3 and <0.4)
17 | CC(C)CN(c1ccc(C(=O)O)cc1)c1nc2c(s1)C(C)(C)C/C(=N/O)C2(C)C [Compound 89, 4-{[(5Z)-5-(hydroxyimino)-4,4,7,7-tetramethyl-4,5,6,7-tetrahydro-1,3-benzothiazol-2-yl](2-methylpropyl)amino}benzoic acid] | ** (>0.3 and <0.4)

Row | SMILES | Activity at 300 nM
18 | CC(C)CN(c1ccc(C(=O)O)cc1)c1nc2c(s1)C(C)(C)CC(NCc1ccccc1)C2(C)C (stereo not drawn) [Compound 90, 4-{[5-(benzylamino)-4,4,7,7-tetramethyl-4,5,6,7-tetrahydro-1,3-benzothiazol-2-yl](2-methylpropyl)amino}benzoic acid] | ** (>0.3 and <0.4)
19 | Cc1c(N(CC(C)C)c2ccc(C(=O)O)c(O)c2)sc2c1C(C)(C)CCC2(C)C [Compound 91, 2-hydroxy-4-[(2-methylpropyl) (3,4,4,7,7-pentamethyl-4,5,6,7-tetrahydro-1-benzothiophen-2-yl)amino]benzoic acid] | ***** (>0.6)
20 | CC1(C)CCC(C)(C)c2sc(Nc3ccc(C(=O)O)cc3O)nc21 [Compound 92, 3-hydroxy-4-[(4,4,7,7-tetramethyl-4,5,6,7-tetrahydro-1,3-benzothiazol-2-yl)amino]benzoic acid] | * (<0.3)
21 | CC1(C)CCC(C)(C)c2sc(C(=O)c3ccc(C(=O)O)nc3)nc21 [Compound 93, 5-[(4,4,7,7-tetramethyl-4,5,6,7-tetrahydro-1,3-benzothiazol-2-yl)carbonyl]pyridine-2-carboxylic acid] | * (<0.3)
22 | C=C(c1ccc(C(=O)O)nc1)c1nc2c(s1)C(C)(C)CCC2(C)C [Compound 94, 5-[1-(4,4,7,7-tetramethyl-4,5,6,7-tetrahydro-1,3-benzothiazol-2-yl)ethenyl]pyridine-2-carboxylic acid] | ** (>0.3 and <0.4)
23 | CC1(C)CCC(C)(C)c2sc(C(=O)c3ccc(C(=O)O)cn3)nc21 [Compound 95, 6-[(4,4,7,7-tetramethyl-4,5,6,7-tetrahydro-1,3-benzothiazol-2-yl)carbonyl]pyridine-3-carboxylic acid] | ** (>0.3 and <0.4)
24 | CC1(C)CCC(C)(C)c2sc(C(C)(O)c3ccc(C(=O)O)cn3)nc21 (stereo not drawn) [Compound 96, 6-[1-hydroxy-1-(4,4,7,7-tetramethyl-4,5,6,7-tetrahydro-1,3-benzothiazol-2-yl)ethyl]pyridine-3-carboxylic acid] | ** (>0.3 and <0.4)
25 | C=C(c1ccc(C(=O)O)cc1)c1nc2c(s1)C(C)(C)CCC2(C)C [Compound 97, 4-[1-(4,4,7,7-tetramethyl-4,5,6,7-tetrahydro-1,3-benzothiazol-2-yl)ethenyl]benzoic acid] | ** (>0.3 and <0.4)
26 | CC1(C)CCC(C)(C)c2sc(C3(c4ccc(C(=O)O)cc4)CC3)nc21 [Compound 98, 4-[1-(4,4,7,7-tetramethyl-4,5,6,7-tetrahydro-1,3-benzothiazol-2-yl)cyclopropyl]benzoic acid] | **** (>0.5 to <0.6)
27 | CC1(C)CCC(C)(C)c2sc(N(c3ccc(C(=O)O)cn3)C3CCC3)nc21 [Compound 99, 6-[cyclobutyl(4,4,7,7-tetramethyl-4,5,6,7-tetrahydro-1,3-benzothiazol-2-yl)amino]pyridine-3-carboxylic acid] | ***** (>0.6)
28 | CC1(C)CCC(C)(C)c2sc(N(c3ccccc3)c3ccc(C(=O)O)cc3)nc21 [Compound 100, 4-[phenyl(4,4,7,7-tetramethyl-4,5,6,7-tetrahydro-1,3-benzothiazol-2-yl)amino]benzoic acid] | ***** (>0.6)
29 | CC1(C)CCC(C)(C)c2sc(N(c3ccc(C(=O)O)cc3)c3ccccn3)nc21 [Compound 101, 4-[pyridin-2-yl(4,4,7,7-tetramethyl-4,5,6,7-tetrahydro-1,3-benzothiazol-2-yl)amino]benzoic acid] | *** (>0.4 and <0.5)
30 | Cc1c(N(c2ccccc2)c2ccc(C(=O)O)cc2)sc2c1C(C)(C)CCC2(C)C [Compound 102, 4-[(3,4,4,7,7-pentamethyl-4,5,6,7-tetrahydro-1-benzothiophen-2-yl) (phenyl)amino]benzoic acid] | ***** (>0.6)
31 | Cc1c(N(c2ccc(C(=O)O)cc2)c2ccccn2)sc2c1C(C)(C)CCC2(C)C [Compound 103, 4-[(3,4,4,7,7-pentamethyl-4,5,6,7-tetrahydro-1-benzothiophen-2-yl) (pyridin-2-yl)amino]benzoic acid] | ***** (>0.6)
32 | Cc1c(N(Cc2ccccn2)c2ccc(C(=O)O)cc2)sc2c1C(C)(C)CCC2(C)C [Compound 104, 4-[(3,4,4,7,7-pentamethyl-4,5,6,7-tetrahydro-1-benzothiophen-2-yl) (pyridin-2-ylmethyl)amino]benzoic acid] | * (<0.3)
33 | CC1(C)CCC(C)(C)c2sc(N(CC3CC3)c3ccc(CC(=O)O)cc3)nc21 [Compound 105, {4-[(cyclopropylmethyl) (4,4,7,7-tetramethyl-4,5,6,7-tetrahydro-1,3-benzothiazol-2-yl)amino]phenyl}acetic acid] | ***** (>0.6)
